Several values for one entry are separate records, joined by “and”; a condition that tells them apart may be missing. Equal entries are not always repeated. Where two headings read alike, the source gives them in different places.
Assays:
SPCH = biological target: T1, SPCH (Arabidopsis thaliana, UniProt Q700C7); experiment: BLI direct binding; parameters: species or system A. thaliana
T1 construct: ΔNSPCH (98-364); made in house; host or cells: E. coli BL21
Source text: (§1) A. thaliana SCRM (1-494), ΔNSPCH (98-364), MUTE (1-202), ΔNFAMA (190-414), MUTEΔC (1-114), MUTER133A_R134A, MUTEE162A_E163A, MUTER133A_R134A_E162A_E163A, SCRM-ACTL (405-494), MUTE-ACTL (114-202), SPCH-ACTL (285-364), FAMA-ACTL (306-414), MUTE_ACTLR133A_R134A, MUTE_ACTLE162A_E163A, MUTE_ACTLR133A_R134A_E162A_E163A were cloned into pGEX-4T-1 vector with an N-terminal GST tag and a thrombin cleavage sequence. For protein expression, the constructs were transformed into E. coli strain BL21. For each transformant, a single colony was selected and incubated in 10 ml LB liquid media. The overnight-incubated E. coli suspensions were transferred to 1 L LB medium and incubated at 37 °C for around 2 h until the OD600 reached 0.4–0.6. The isopropyl β-D-1-thiogalactopyranoside ([…] of final concentration) was added to the cultures and the strains were incubated at 22 °C for a further 18 h. GST-fused proteins were purified using glutathione agarose resin. The soluble portion of the cell lysate was loaded onto a GST-Sepharose column. Nonspecifically bound proteins were removed by washing the column with 20 mM Tris pH 8.0, 200 mM NaCl. The bound GST-fused protein was eluted with 10 mm glutathione and 20 mM Tris pH 8.0, 200 mM NaCl. The GST-fused proteins were exchanged with phosphate-buffered saline buffer, and then the solution was treated with 50 μg of thrombin for 10–12 h at 16 ^οC. The GST portion of the protein was cleaved during thrombin digestion, and then the whole solution was reloaded onto the glutathione S-transferase column to obtain pure protein. The purified proteins were further purified by gel filtration on a Superdex-200 (GE) column using fast protein liquid chromatography and phosphate buffer (pH 7.2) as the eluent. The purity of the protein was checked by SDS-PAGE. For detailed lists of oligo DNA and plasmid information, see Supplementary Tables 5, 6, respectively.
(§2) The binding affinities of SCRM to MUTE / MUTER133A_R134A / MUTEE162A_E163A / MUTER133A_R134A_E162A_E163A in presence and absence of Stomidazolone (3) and its analogues (AYSJ1059 (5) and AYSJ1061 (6)), and Stomidazolone / AYSJ1059 / AYSJ1061 interactions with GST-tagged SCRM, MUTE, SPCH, FAMA, MUTE ΔACTL, MUTE_ACTL, SCRM_ACTL, SPCH_ACTL and FAMA_ACTL, MUTER133A_134A, MUTEE162A_E163A, MUTER133A_R134A_E162A_E163A were measured using the Octet Red96 system (ForteBio, Pall Life Sciences) following the manufacturer’s protocols. The optical probes coated with anti-GST were first loaded with 500 nM GST tagged proteins before kinetic binding analyses. The experiment was performed in 96-well plates maintained at 30 °C. Each well was loaded with 200 μL reaction volume for the experiment. The binding buffer used in these experiments contained 1× PBS supplemented with 2% DMSO, 0.02% Tween20. […] There was no binding of the analytes to the unloaded probes as shown by the control wells. Binding kinetics to all seven concentrations of the analytes were measured simultaneously using default parameters on the instrument. The data were analyzed using the Octet data analysis software. The association and dissociation curves were fit with the 1:1 homogeneous ligand model. The kobs (observed rate constant) values were used to calculate Kd, with steady-state analysis of the direct binding. See Supplementary Table 3 for details.

MUTE = biological target: T2, MUTE (Arabidopsis thaliana, UniProt Q9M8K6); experiment: BLI direct binding; parameters: species or system A. thaliana
T2 construct: MUTE (1-202); made in house; host or cells: E. coli BL21
T2 sequence (Q9M8K6 whole entry): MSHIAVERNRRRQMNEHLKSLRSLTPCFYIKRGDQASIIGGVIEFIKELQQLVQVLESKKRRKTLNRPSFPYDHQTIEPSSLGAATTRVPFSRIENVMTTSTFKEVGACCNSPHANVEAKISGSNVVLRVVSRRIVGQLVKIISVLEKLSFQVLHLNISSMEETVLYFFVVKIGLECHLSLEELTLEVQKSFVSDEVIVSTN
Source text: as §1, §2

[1] = SPCH, Conc. (µM) 3.12, rep-1, rep-2
[2] = SPCH, Conc. (µM) 6.25, rep-1, rep-2
[3] = SPCH, Conc. (µM) 12.5, rep-1, rep-2
[4] = SPCH, Conc. (µM) 50, rep-1, rep-2
[5] = SPCH, Conc. (µM) 100, rep-1, rep-2
[6] = SPCH, Conc. (µM) 200, rep-1, rep-2

T1 sequence (Q700C7 98-364): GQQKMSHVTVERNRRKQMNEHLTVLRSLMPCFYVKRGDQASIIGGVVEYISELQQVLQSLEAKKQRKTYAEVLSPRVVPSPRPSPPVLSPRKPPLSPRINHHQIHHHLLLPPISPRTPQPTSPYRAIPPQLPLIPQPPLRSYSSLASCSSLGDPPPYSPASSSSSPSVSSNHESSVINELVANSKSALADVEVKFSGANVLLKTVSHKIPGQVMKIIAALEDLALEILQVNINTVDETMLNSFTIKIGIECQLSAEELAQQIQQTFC

O=C1C(c2ccccc2)=NC(NS(=O)(=O)c2ccccc2)(c2ccccc2)N1S(=O)(=O)c1ccccc1 (stereo not shown) [Stomidazolone]
Kd (SPCH; BLI steady state, SPCH, read-out: KD (SS)): 85.2 ± 6.8 µM
Kd (SPCH; BLI, SPCH, read-out: KD): 75.6 ± 0.7 µM
kdis (SPCH; SPCH loaded on Anti-GST sensor, fit per sensor, Stomid Conc. (mM) 200-3.12, rep-1, rep-2): 0.319 s⁻¹ and 0.323 s⁻¹ and 0.32 s⁻¹ and 0.325 s⁻¹ and 0.33 s⁻¹ and 0.326 s⁻¹
kon (SPCH; SPCH loaded on Anti-GST sensor, fit per sensor, Stomid Conc. (µM) 200-3.12, rep-1, rep-2): 4280 M⁻¹ s⁻¹ and 4310 M⁻¹ s⁻¹ and 4320 M⁻¹ s⁻¹ and 4400 M⁻¹ s⁻¹ and 4290 M⁻¹ s⁻¹ and 4340 M⁻¹ s⁻¹ and 4360 M⁻¹ s⁻¹
Kd (SPCH; SPCH loaded on Anti-GST sensor, fit per sensor, Stomid Conc. (µM) 200-3.12, rep-1, rep-2, read-out: KD): 75.4 µM and 76.8 µM and 74.1 µM and 73.1 µM and 74.8 µM and 72.6 µM and 75.2 µM and 76.7 µM and 76.9 µM and 74.4 µM
RMax (SPCH; [1]): 0.03 and 0.0213
Req/Rmax(%) (SPCH; [1]): 100%
Response (SPCH; [1]): 0.0312 and 0.0213
RMax (SPCH; [2]): 0.062 and 0.0321
Req/Rmax(%) (SPCH; [2]): 97% and 100%
Response (SPCH; [2]): 0.0608 and 0.0321
RMax (SPCH; [3]): 0.067 and 0.0781
Response (SPCH; [3]): 0.065 and 0.0781
RMax (SPCH; [4]): 0.135 and 0.1621
Req/Rmax(%) (SPCH; [4]): 89%
Response (SPCH; [4]): 0.1334 and 0.1621
RMax (SPCH; [5]): 0.235 and 0.2711
Response (SPCH; [5]): 0.233 and 0.2711
RMax (SPCH; [6]): 0.335 and 0.323
Req/Rmax(%) (SPCH; [6]): 98%
Response (SPCH; [6]): 0.3311 and 0.323
koff (SPCH; read-out: kdis(1/s), SPCH loaded on Anti-GST sensor, fit per sensor, Stomid Conc. (mM) 200-3.12, rep-1, rep-2): 0.329 s⁻¹
kon (SPCH; read-out: kon(1/Ms), SPCH loaded on Anti-GST sensor, fit per sensor, Stomid Conc. (mM) 200-3.12, rep-1, rep-2): 4370 M⁻¹ s⁻¹
Kd (MUTE; BLI steady state, MUTE, read-out: KD (SS)): 0.0089 ± 0.0012 mM
kdis (MUTE; MUTE loaded on Anti-GST sensor, fit per sensor, Stomid Conc. 200-3.12, rep-1, rep-2): 0.0392 s⁻¹ and 0.0391 s⁻¹
Kd (MUTE; MUTE loaded on Anti-GST sensor, fit per sensor, Stomid Conc. (mM) 200-3.12, rep-1, rep-2, read-out: KD): 0.00896 mM and 0.00929 mM and 0.00909 mM and 0.0092 mM and 0.00905 mM and 0.00911 mM and 0.0091 mM and 0.00897 mM and 0.00907 mM and 0.00902 mM and 0.00906 mM
RMax (MUTE; MUTE, Conc. 3.12, rep-1, rep-2): 0.125 and 0.165
Req/Rmax(%) (MUTE; MUTE, Conc. 3.12, rep-1, rep-2): 100%
Response (MUTE; MUTE, Conc. 3.12, rep-1, rep-2): 0.1223 and 0.1634
RMax (MUTE; MUTE, Conc. 6.25, rep-1, rep-2): 0.275 and 0.215
Req/Rmax(%) (MUTE; MUTE, Conc. 6.25, rep-1, rep-2): 97% and 100%
Response (MUTE; MUTE, Conc. 6.25, rep-1, rep-2): 0.2732 and 0.2105
RMax (MUTE; MUTE, Conc. 12.5, rep-1, rep-2): 0.425 and 0.395
Response (MUTE; MUTE, Conc. 12.5, rep-1, rep-2): 0.4108 and 0.3912
RMax (MUTE; MUTE, Conc. 25, rep-1, rep-2): 0.525 and 0.47
Response (MUTE; MUTE, Conc. 25, rep-1, rep-2): 0.5211 and 0.4645
RMax (MUTE; MUTE, Conc. 50, rep-1, rep-2): 0.55 and 0.585
Req/Rmax(%) (MUTE; MUTE, Conc. 50, rep-1, rep-2): 89%
Response (MUTE; MUTE, Conc. 50, rep-1, rep-2): 0.5313 and 0.5832
RMax (MUTE; MUTE, Conc. 100, rep-1, rep-2): 0.605 and 0.635
Response (MUTE; MUTE, Conc. 100, rep-1, rep-2): 0.5932 and 0.6302
RMax (MUTE; MUTE, Conc. 200, rep-1, rep-2): 0.615 and 0.645
Req/Rmax(%) (MUTE; MUTE, Conc. 200, rep-1, rep-2): 98%
Response (MUTE; MUTE, Conc. 200, rep-1, rep-2): 0.606 and 0.634
koff (MUTE; read-out: kdis(1/s), MUTE loaded on Anti-GST sensor, fit per sensor, Stomid Conc. 200-3.12, rep-1, rep-2): 0.0393 s⁻¹
kon (MUTE; read-out: kon(1/Ms), MUTE loaded on Anti-GST sensor, fit per sensor, Stomid Conc. 200-3.12, rep-1, rep-2): 4380 M⁻¹ s⁻¹
